Assay results taken from publication PMC5111108, “An insecticide resistance-breaking mosquitocide targeting inward rectifier potassium channels in vectors of Zika virus and malaria” (Scientific Reports, 2016).

Tests used:
Kir4.1 = molecular target: T1, Kir4.1 (Homo sapiens, UniProt P78508); assay: Tl+ flux assay, mammalian Kir4.1; type: cell-based
T1 construct: expressed in transfected cells
T1 sequence (P78508 1-379): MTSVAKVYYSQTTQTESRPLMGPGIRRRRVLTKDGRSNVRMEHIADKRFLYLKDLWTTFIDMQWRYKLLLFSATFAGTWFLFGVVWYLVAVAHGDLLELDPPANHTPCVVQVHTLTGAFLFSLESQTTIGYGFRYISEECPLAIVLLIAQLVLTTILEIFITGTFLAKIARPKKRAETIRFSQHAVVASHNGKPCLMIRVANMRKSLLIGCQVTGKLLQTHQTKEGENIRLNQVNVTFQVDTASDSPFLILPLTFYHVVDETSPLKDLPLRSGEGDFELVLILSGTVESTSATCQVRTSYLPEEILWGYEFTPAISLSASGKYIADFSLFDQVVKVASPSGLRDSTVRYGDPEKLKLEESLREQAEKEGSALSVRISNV

Ae. aegypti = assay: In vivo diuresis assay in adult female Ae. aegypti (LVP); design: species or system Aedes aegypti; conditions: topical 1.7 μg/mg mosquito 2 h before injection of 900 nL K+-PBS, 1 h
Procedure: The excretory capacity of adult female Ae. aegypti (LVP strain) was measured as described previously. […] The K^+-PBS consisted of the following (in mM): 92.2 NaCl, 47.5 KCl, 10 Na2HPO4 and 2 KH2PO4 (pH 7.5). Each treatment group of 5 mosquitoes was transferred into a separate graduated, packed-cell volume tube (MidSci, St. Louis, MO) and held for 1 h at 28 °C. The volume excreted by the mosquitoes was measured visually via the graduated column at the bottom of the tube. At least 8 replicates (5 mosquitoes per replicate) were performed for each treatment. All mosquitoes were confirmed to be alive at the end of 1 h.

O=C(Cn1nc(C(F)(F)F)c2c1CCCC2)N1CCCc2ccccc21 [VU041, 1-(3,4-dihydroquinolin-1(2H)-yl)-2-(3-(trifluoromethyl)-4,5,6,7-tetrahydro-1H-indazol-1-yl)ethan-1-one]
inhibition at 30 µM (Kir4.1): < 10%
diuretic capacity (urine excreted) compared to controls, reduction (Ae. aegypti): ~ 51%
